Data on ten molecules can be found in PMC10818921, “Validation of Liquid Chromatography Coupled with Tandem Mass Spectrometry for the Determination of 12 Tyrosine Kinase Inhibitors (TKIs) and Their Application to Therapeutic Drug Monitoring in Adult and Pediatric Populations” (Pharmaceutics, 2023).

Series [1] in a line: Stability of TKI methanolic solutions, 7 days at −20 °C. Conditions: for bias, stability of TKI methanolic solutions: QCs made with 7-day-old methanolic solutions; for storage of methanolic working solutions: −20 °C for 7 days. In kind it is physicochemical. How it is done: To evaluate TKI stability in methanolic solutions, the four QC levels were realized with seven-day-old solutions and were analyzed six times. The accuracy and precision of the samples have to be in conformity with less than 15% variation.

For series [2] the following is noted: cited from earlier work; for Target Concentrations, Cmin / Target Concentrations, Cmax: adults.
The conditions of series [3]: cited from earlier work.
Series [4] in a line: Therapeutic drug monitoring: steady-state residual plasma concentrations by LC-MS/MS. To be noted: for Concentration range CI 95% / IQR / Mean concentration / Median concentration: residual plasma concentration at steady state; for comparison of dose–weight-adjusted concentrations between adult and pediatric groups: Mann–Whitney test, p-value < 0.0001 where significant. In kind it is in vivo, human. On the procedure:
For each calibration sample, an adapted volume of working solution was added and evaporated. Then, 150 µL of IS methanolic solution was added to 50 µL of plasma sample (blank plasma for calibration sample or patient plasma) to precipitate proteins. After vortex mixing and 10 min of centrifugation, the supernatant was transferred into injection vials, and 10 µL was injected into the chromatographic system.
Chromatography was performed on a Dionex Ultimate 3000 Pump (ThermoFisher, les Ulis, France) using a Kinetex C18 Polar column (100 × 2.1 mm, 2.6 µm particle size) heated at 40 °C. The mobile phase A was made with 2 mM of ammonium formate in 0.1% formic acid in ultra-pure water and stored at +4 °C for a maximum of one week. […] The gradient was set as follows: 10 to 40% of B from 0 to 1 min, then 40 to 90% of B in 1 min, and keeping this for 2 min before resetting to 10% B in 1 min. An equilibration time of one minute at 10% mobile phase B at the end of the chromatographic run allowed the column to be equilibrated before the next analysis.
The compounds were detected using an Altis® triple quadrupole tandem mass spectrometer (ThermoFisher Scientific, Les Ulis, France) equipped with an electrospray ionization (ESI) source set in positive ionization mode with a potential of +3.5 kV. Nitrogen was used as cladding and auxiliary gas at a pressure of 30 and 10 arbitrary units (AU), respectively. The collision gas, argon, was used at a pressure of 1.5 mTorr. The temperature of the ion transfer capillary was set at 350 °C. Data were collected in multiple reaction monitoring mode (MRM) with two transitions (m/z) per compound. Xcalibur® (v 4.2.47) and LC Quan® (v 2.7.0) software (ThermoFisher Scientific) were used for data acquisition and processing.
The study was conducted in accordance with the Declaration of Helsinki and approved by the local ethics committee.
Populations treated with each TKI are described in Table 4.
Blood samples were collected in a steady state (i.e., a minimum of 2 weeks after the initiation of therapy or dose adjustment) just prior to dosing. The samples were collected in lithium heparin tubes without a separator and were immediately centrifuged, decanted, and frozen at −20 °C before LC-MS/MS analysis.
A Mann–Whitney […] was performed to compare dose–weight-adjusted concentrations between adult and pediatric groups. Results are illustrated in box-and-whiskers plots. GraphPad Prism v.8.3.0 Software (San Diego, CA, USA) was used to process and visualize data.

The conditions of series [5]: cited from earlier work. This is another data set of the same source.

Read-outs that look alike come from different tables or passages of the source.

`C[C@@H](Oc1cc(-c2cnn(C3CCNCC3)c2)cnc1N)c1c(Cl)ccc(F)c1Cl` [Crizotinib, crizotinib]: in series [1], the “bias, stability of TKI methanolic solutions” value (“bias, stability” for short) is recorded as ≥ 15% and the “storage of methanolic working solutions” value is listed as “must be prepared extemporaneously”. For the same molecule, the “stability at −20 °C for 7 days” value in series [1] (methanolic solutions, CQ3) is given as “not stable”. Moreover, the “Target Concentrations, Cmin” value in series [2] is “Cmin ≥ 235 ng/mL”. Besides, the stability in plasma entry in series [3] was “minimum of one month”.
Turning to `C=CC(=O)Nc1cc(Nc2nccc(-c3c[nH]c4ccccc34)n2)c(OC)cc1N(C)CCN(C)C` [AZ5104], in series [4] (adults), the “Dose–weight-adjusted mean concentration” value stood at 25.8 ng/mL/mg/kg, the “Dose–weight-adjusted median concentration” value is reported as 21.7 ng/mL/mg/kg, the “Concentration range CI 95%” value is “[16–56] ng/mL” and the IQR result was “[11–47] ng/mL”. In series [4] (adults), this molecule registered a Mean concentration of 32 ng/mL and a Median concentration of 25 ng/mL. Moreover, in series [1], the “bias, stability” value is ≥ 15% and the “storage of methanolic working solutions” value was “must be prepared extemporaneously”.
For the molecule `CC(C)(C)c1nc(-c2cccc(NS(=O)(=O)c3c(F)cccc3F)c2F)c(-c2ccnc(N)n2)s1` [Dabrafenib, dabrafenib], in series [4], the “comparison of dose–weight-adjusted concentrations between adult and pediatric groups” value (“comparison” below) was “not statistically different”. In series [4] (adults), the “Dose–weight-adjusted mean concentration” value stood at 28.3 ng/mL/mg/kg, the “Dose–weight-adjusted median concentration” value was 14 ng/mL/mg/kg, the “Concentration range CI 95%” value was “[88–122] ng/mL” and the IQR entry is “[29–114] ng/mL”. Further, in series [4] (adults), the Mean concentration came out at 105.3 ng/mL and the Median concentration is on record as 53.5 ng/mL. In series [4] (children), the “Dose–weight-adjusted mean concentration” value is recorded as 62.3 ng/mL/mg/kg, the “Dose–weight-adjusted median concentration” value is on record as 19.1 ng/mL/mg/kg, the “Concentration range CI 95%” value is “[26–178] ng/mL” and the IQR entry is “[15–131] ng/mL”. In series [4] (children), this molecule had a Mean concentration of 102.3 ng/mL and a Median concentration of 18.4 ng/mL. Also, in series [2], the “Target Concentrations, Cmin” value is “Cmin ≥ 15 ng/mL”. Further, the stable in plasma result in series [3] (−40 °C) is given as “more than 20 weeks”. Besides, in series [5], the adverse effects described result was “Skin disorders (acneiform eruptions and rash)”.
Take `O=C(c1ccc(F)c(F)c1Nc1ccc(I)cc1F)N1CC(O)([C@@H]2CCCCN2)C1` [Cobimetinib, cobimetinib]: in series [4], the “comparison” value is on record as “not statistically different”. In addition, in series [4] (adults), the “Dose–weight-adjusted mean concentration” value is 145.7 ng/mL/mg/kg, the “Dose–weight-adjusted median concentration” value is given as 138.1 ng/mL/mg/kg, the “Concentration range CI 95%” value is “[24–94] ng/mL” and the IQR entry is “[46.5–83] ng/mL”. In series [4] (adults), this molecule showed a Mean concentration of 59.3 ng/mL and a Median concentration of 70 ng/mL. In addition, in series [4] (children), the “Dose–weight-adjusted mean concentration” value worked out at 85.4 ng/mL/mg/kg, the “Dose–weight-adjusted median concentration” value came out at 62.6 ng/mL/mg/kg, the “Concentration range CI 95%” value is “[74–118] ng/mL” and the IQR result was “[34–114] ng/mL”. Further, in series [4] (children), the Mean concentration turned out to be 96.3 ng/mL and the Median concentration came out at 64.3 ng/mL. The “Target Concentrations, Cmax” value in series [2] is recorded as “Cmax = 270 ng/mL”. Moreover, the stable in plasma entry in series [3] (−40 °C) is reported as “more than 20 weeks”.
With `CCc1cc2c(cc1N1CCC(N3CCOCC3)CC1)C(C)(C)c1[nH]c3cc(C#N)ccc3c1C2=O` [Alectinib, alectinib], in series [4] (adults), the “Dose–weight-adjusted mean concentration” value is recorded as 17.3 ng/mL/mg/kg, the “Dose–weight-adjusted median concentration” value came out at 16.7 ng/mL/mg/kg, the “Concentration range CI 95%” value is “[292–424] ng/mL” and the IQR result is “[302–408] ng/mL”. For the same molecule, in series [4] (adults), the Mean concentration worked out at 358 ng/mL and the Median concentration came out at 346 ng/mL.
Take `C[C@H]1Oc2cc(cnc2N)-c2c(nn(C)c2C#N)CN(C)C(=O)c2ccc(F)cc21` [Lorlatinib, lorlatinib]: the “Target Concentrations, Cmax” value in series [2] is “Cmax = 575 ng/mL”. The stable in plasma result in series [3] (−30 °C) was “at least 2 months”.
Take `C=CC(=O)Nc1cc(Nc2nccc(-c3cn(C)c4ccccc34)n2)c(OC)cc1N(C)CCN(C)C` [Osimertinib, osimertinib]: in series [4] (adults), the “Dose–weight-adjusted mean concentration” value was 196.7 ng/mL/mg/kg, the “Dose–weight-adjusted median concentration” value was found to be 211.4 ng/mL/mg/kg, the “Concentration range CI 95%” value is “[122–320] ng/mL” and the Mean concentration is 221 ng/mL. The same molecule yielded a Median concentration in series [4] (adults) of 207 ng/mL. In series [1], the “bias, stability” value is ≥ 15% and the “storage of methanolic working solutions” value was “must be prepared extemporaneously”. Also, the “Target Concentrations, Cmin” value in series [2] (40 mg dosage) is ≥ 90 ng/mL. In addition, the “Target Concentrations, Cmin” value in series [2] (80 mg dosage) is reported as ≥ 160 ng/mL. In addition, the stability in plasma result in series [3] is on record as “minimum of one month”.
Take `CC(=O)Nc1cccc(-n2c(=O)n(C3CC3)c(=O)c3c(Nc4ccc(I)cc4F)n(C)c(=O)c(C)c32)c1` [Trametinib, trametinib]: the “comparison” value in series [4] is “significantly lower in the adult group than in the pediatric group”. Besides, in series [4] (adults), the “Dose–weight-adjusted mean concentration” value turned out to be 443.8 ng/mL/mg/kg, the “Dose–weight-adjusted median concentration” value turned out to be 386.3 ng/mL/mg/kg, the “Concentration range CI 95%” value is “[11–13] ng/mL” and the IQR entry is “[8–14] ng/mL”. Moreover, in series [4] (adults), the Mean concentration was found to be 12.4 ng/mL and the Median concentration was found to be 11 ng/mL. For the same molecule, in series [4] (children), the “Dose–weight-adjusted mean concentration” value turned out to be 578.4 ng/mL/mg/kg, the “Dose–weight-adjusted median concentration” value is listed as 538.5 ng/mL/mg/kg, the “Concentration range CI 95%” value was “[11–14] ng/mL” and the IQR entry is “[6.5–17] ng/mL”. In series [4] (children), this molecule showed a Mean concentration of 12.6 ng/mL and a Median concentration of 9.7 ng/mL. In series [2], the “Target Concentrations, Cmin” value is recorded as “Cmin ≥ 10.6 ng/mL” and the minimum effective concentrations is 10 ng/mL. The serum stability in series [3] (−20 °C) is 20 months. The toxicity reported entry in series [5] (children treated for glioma) is “signs of cutaneous toxicity”. Besides, the adverse effects described entry in series [5] was “Skin disorders (acneiform eruptions and rash)”.
For `COC(=O)N[C@@H](C)CNc1nccc(-c2cn(C(C)C)nc2-c2cc(Cl)cc(NS(C)(=O)=O)c2F)n1` [Encorafenib, encorafenib], in series [4] (adults), the “Dose–weight-adjusted mean concentration” value is 3.4 ng/mL/mg/kg, the “Dose–weight-adjusted median concentration” value was 2.6 ng/mL/mg/kg, the “Concentration range CI 95%” value is “[16–21] ng/mL” and the IQR entry was “[10–22] ng/mL”. In series [4] (adults), this molecule yielded a Mean concentration of 18.6 ng/mL and a Median concentration of 15 ng/mL. Moreover, in series [2], the “Target Concentrations, Cmax” value is recorded as “Cmax = 3100 ng/mL”. The “frozen stability in plasma” value in series [3] is on record as “at least 30 days”.
On to `Cn1cnc2c(F)c(Nc3ccc(Br)cc3F)c(C(=O)NOCCO)cc21` [Binimetinib, binimetinib], for which the “comparison” value in series [4] is “higher concentrations of binimetinib in adults”. For the same molecule, in series [4] (adults), the “Dose–weight-adjusted mean concentration” value is recorded as 48.8 ng/mL/mg/kg, the “Dose–weight-adjusted median concentration” value was found to be 41.6 ng/mL/mg/kg, the “Concentration range CI 95%” value was “[51–64] ng/mL” and the IQR entry was “[38–69] ng/mL”. In series [4] (adults), this molecule yielded a Mean concentration of 57.4 ng/mL and a Median concentration of 52 ng/mL. Also, in series [4] (children), the “Dose–weight-adjusted mean concentration” value is listed as 17.5 ng/mL/mg/kg, the “Dose–weight-adjusted median concentration” value was determined as 14.6 ng/mL/mg/kg, the “Concentration range CI 95%” value was “[37–204] ng/mL” and the IQR entry was “[62–143] ng/mL”. In series [4] (children), this molecule gave a Mean concentration of 120 ng/mL and a Median concentration of 100 ng/mL. The “Target Concentrations, Cmax” value in series [2] was “Cmax = 654 ng/mL”. Further, the “frozen stability in plasma” value in series [3] is listed as “at least 30 days”.
